Measurements: patent US5010059A, “Pharmaceutical products and lactosyl compounds” (Solco Basel AG, priority 1987, dated 1991)
“And” between values parts separate entries of the source, which are not always exact repeats. Equal entries are not always repeated. Where two headings read alike, the source gives them in different places.

Assays:
[1] = tested on: GalN/endotoxin hepatitis; details: *p ≤ 0.01, **p ≤ 0.001; indomethacin 9 mg/kg; diethylcarbamazine 78 mg/kg i.p. every 45 minutes between 0 and 6 hours; dexamethasone 200 μg/kg i.p.; cited from earlier work
[2] = tested on: GalN/endotoxin hepatitis; assay: GalN/endotoxin hepatitis, cytoprotective effect of the compounds; format: in vivo, albino mice of the NMRI strain; details: 200 μg/kg i.p. 1 hour before GalN/endotoxin; serum 9 hours later; n.s. not significant, *p ≤ 0.05, **p ≤ 0.01
Source text: In order to gain a deeper insight into the pharmacological properties of the compounds of the formula I, they have been examined for any cytoprotective effects they may have. The cytoprotective effect can be shown, inter alia, by the method described by A. Wendel and G. Tiegs in Biochemical Pharmacology 35 (1986), 2115-2118. This is based on the impairment of liver function as a consequence of sensitization of the liver due to administration of D-galactosamine and simultaneous treatment with endotoxins.
D-galactosamine (abbreviated to GalN) causes in animals liver damage which is regarded as a model for human viral hepatitis. The mechanism is assumed to be an accumulation of toxic galactosamine derivatives in the liver, which results in a diminution in the biosynthesis of macromolecules such as ribonucleic acids, proteins, glycoproteins and glycogens. These changes in the metabolism may in turn result in cell damage or even death of cells in the liver. The extent of liver damage can be determined by the increase in certain liver enzymes (sorbitol dehydrogenase SDH, serum glutamic-oxalic transaminase SGOT, serum glutamic-pyruvic transaminase SGPT) in the blood and by histology of the liver.
The test is carried out as follows.
Male albino mice of the NMRI strain are pretreated intraperitoneally with 200 μg/kg test substance and, 1 hour thereafter, treated intraperitoneally with 700 mg/kg D-galactosamine and 33 μg/kg endotoxins. 9 hours later, blood is removed by cardiac puncture, and the enzymatic activity in the blood serum is determined according to H. U. Bergmeyer [Methods in Enzymatic Analysis, 3rd edition (1985), volume III]. In this experimental model, the […] (Kupffer cells) actually function as immobilized macrophages.
The content of the liver enzymes SDH, SGOT and SGPT in the serum is expressed in international units (IU) for the enzyme activity; 1 IU=1 μmol of substrate converted/minute in one liter.

[3] = tested on: cutaneous necrosis; assay: skin flap test (action promoting healing); format: in vivo, Wistar rats; details: for Area of surviving skin in mm^2 / Area of the necrotic skin in mm^2 / Area of the skin flap / Area of surviving skin in % / Area of the necrotic skin in %: 1.5 ml i.p. daily for 8 days; for Area of surviving skin in mm^2 / Area of the necrotic skin in mm^2 / Area of the skin flap: 5% concentration; for Area of surviving skin in % / Area of the necrotic skin in %: % of skin flap; for Action of the compound in %: increase in area of surviving skin as percentage compared with control
Source text: Various pharmacological tests can be used to test for any therapeutically beneficial effect on damaged cells and tissues. An action promoting healing can be estimated and measured, in particular, by using the so-called skin flap test; the test is based on the development of a cutaneous necrosis and the inhibition thereof as a consequence of the action of the test substance.
Male Wistar rats of body weight 220-240 g in groups of 8 animals for each value which is to be determined are anesthetized with Nembutal (50 mg/kg, i.p.). A 1×3 cm skin flap is cut out, using a scalpel, from the back, is thoroughly washed and is returned to the original site and is sutured. The test animals are given the compound which is to be tested, in 5% concentration in aqueous solution (containing 0.2% ethanol and 1% polyethylene glycol of molecular weight 20,000--or Carbowax ®20; in each case 1.5 ml intraperitoneal), each day for 8 days; the control animals receive only the aqueous medium. Each day drawings are made of the skin flaps on the scale 1:1, with the necrotic sites being colored black. The animals are sacrificed after 8 days, and the drawings are evaluated using a Biotran apparatus, and the total area of the necrotic sites is measured in mm^2. The action promoting healing is expressed as the increase in the area of surviving skin as a percentage compared with the control.

[4] = acute toxicity testing; format: in vivo; set-up: Weight on May 10, 1988 / Weight on May 20, 1988: unit not given here
Method: Two groups each of ten mice were observed and weighed each day for 10 days. The animals in the control group each received intraperitoneal administration of 500 μl of a 5 mmol/l solution of Pluronic ® F 68 (manufactured by BASF Wyandotte, Erbsloh/FRG) in physiological saline, while those in the test group received 500 μl of a solution of 6 mg of the compound named above in 6 ml of Pluronic® F 68.

SMILES | SGOT [1] | SGPT [1] | SDH [2] | SGOT [2] | SGPT [2] | Area of surviving skin in mm^2 [3] | Area of the necrotic skin in mm^2 [3] | Area of the skin flap [3] | Area of surviving skin in % [3] | Area of the necrotic skin in % [3] | Action of the compound in % [3] | special reactions immediately after the injection ([4]; about 20 mg/kg i.p.) | toxic signs ([4]; about 20 mg/kg i.p., during the experiment and days which followed) | weight gain versus control group ([4]; about 20 mg/kg i.p., test versus control group) | mortality ([4]; mouse, in vivo) | Weight on May 20, 1988 ([4]; test group, individual animals, 10 days, about 20 mg/kg i.p.) | Weight difference ([4]; test group, individual animals, May 10 to May 20, about 20 mg/kg i.p.) | Weight on May 10, 1988 ([4]; test group, individual animals, before/at i.p. dosing (about 20 mg/kg))
C[C@@H]1C[C@H]2[C@@H]3CCC4=CC(=O)C=C[C@]4(C)[C@@]3(F)[C@@H](O)C[C@]2(C)[C@@]1(O)C(=O)CO [Dexamethasone] | 140 ± 100 | 100 ± 60 | – | – | – | – | – | – | – | – | – | – | – | – | – | – | – | –
CCN(CC)C(=O)N1CCN(C)CC1 [Diethylcarbamazine] | 270 ± 90 | 290 ± 180 | – | – | – | – | – | – | – | – | – | – | – | – | – | – | – | –
CCCCCCCCCCCCCC=CC(O)C(COC1OC(CO)C(O)C(O)C1O)NC(=O)CCCCCCCCCCCCCCC [Gal(Pal)-D-Sph] | – | – | 2400 ± 2800 IU/liter | 1030 ± 1150 IU/liter | 2990 ± 3510 IU/liter | 191.8 ± 18.9 mm^2 | 81.4 ± 18.5 mm^2 | 273.3 ± 5.2 mm^2 | 70.2% | 29.8% | +31.2% | – | – | – | – | – | – | –
CC/C=C\C/C=C\C/C=C\CCCCCCCC(=O)N[C@@H](CO[C@@H]1O[C@H](CO)[C@@H](O)[C@H](O)[C@H]1O)[C@H](O)/C=C/CCCCCCCCCCCCC [Glu(Linolen)-D-Sph] | – | – | 2280 ± 355 IU/liter | 940 ± 170 IU/liter | 3350 ± 630 IU/liter | 107.4 ± 27.3 mm^2 | 184.1 ± 28.9 mm^2 | 291.5 ± 5.5 mm^2 | 37.2% | 62.8% | +144.7% | – | – | – | – | – | – | –
CCCCCCCCCCCCC/C=C/[C@@H](O)[C@H](CO[C@@H]1O[C@H](CO)[C@@H](O)[C@H](O)[C@H]1O)NC(=O)CCCCCCCCCCCCCCC [Glu(Pal)-D-Sph] | – | – | 4720 ± 2320 IU/liter | 910 ± 425 IU/liter | 3950 ± 2260 IU/liter | 144.1 ± 9.1 mm^2 | 113.3 ± 10.6 mm^2 | 257.4 ± 6.2 mm^2 | 56.2% | 43.8% | +30.1% | – | – | – | – | – | – | –
CCCCCCCCCCCCCC=CC(O)C(COC1OC(CO)C(O)C(O)C1O)NC(=O)CCCCCCCCCCCCCCC [Glu(Pal)-L-Sph] | – | – | 1690 ± 1680 IU/liter | 410 ± 360 IU/liter | 1470 ± 1460 IU/liter | 178.6 ± 16.8 mm^2 | 85.8 ± 14.7 mm^2 | 264.4 ± 2.6 mm^2 | 67.3% | 32.7% | +55.8% | – | – | – | – | – | – | –
COc1ccc2c(c1)c(CC(=O)O)c(C)n2C(=O)c1ccc(Cl)cc1 [Indomethacin] | 480 ± 475 | 730 ± 1,040 | – | – | – | – | – | – | – | – | – | – | – | – | – | – | – | –
CCCCC/C=C\C/C=C\C/C=C\C/C=C\CCCC(=O)N[C@@H](CO[C@@H]1O[C@H](CO)[C@@H](O[C@@H]2O[C@H](CO)[C@H](O)[C@H](O)[C@H]2O)[C@H](O)[C@H]1O)[C@H](O)/C=C/CCCCCCCCCCCCC [Lac(Arach)-D-Sph] | – | – | 355 ± 425 IU/liter | 280 ± 260 IU/liter | 290 ± 210 IU/liter | 211.6 ± 33.3 mm^2 | 111.5 ± 25.8 mm^2 | 323.1 ± 10.4 mm^2 | 64.1% | 35.8% | +36.8% | – | – | – | – | – | – | –
CC/C=C\C/C=C\C/C=C\CCCCCCCC(=O)N[C@@H](CO[C@@H]1O[C@H](CO)[C@@H](O[C@@H]2O[C@H](CO)[C@H](O)[C@H](O)[C@H]2O)[C@H](O)[C@H]1O)[C@H](O)/C=C/CCCCCCCCCCCCC [Lac(Linolen)-D-Sph, (2S,3R,4E)-1-[4-0-(β-D-Galactopyranosyl)-β-D-glucopyranosyloxy-oxy]-2-[(9Z,12Z,15Z)-9,12,15-octadecatrienoylamino]-4-octadecen-3-ol] | – | – | 290 ± 250 IU/liter | 124 ± 55 IU/liter | 230 ± 76 IU/liter | 195.9 ± 35.5 mm^2 | 128.1 ± 34.2 mm^2 | 324.0 ± 10.0 mm^2 | 60.4% | 39.6% | +22.0% | – | – | – | – | – | – | –
CCCCCCCCCCCCC/C=C/[C@@H](O)[C@H](CO[C@@H]1O[C@H](CO)[C@@H](O[C@@H]2O[C@H](CO)[C@H](O)[C@H](O)[C@H]2O)[C@H](O)[C@H]1O)NC(=O)CCCCCCCCCCCCCCC [Lac(Pal)-D-Sph, (2S,3R,4E)-1-[4-0-(8-D-galactopyranosyl) -β-D-glucopyranosyloxy]-2-hexadecanoylamino-4-octadecen-3-ol] | – | – | 80 ± 30 IU/liter | 80 ± 20 IU/liter | 110 ± 70 IU/liter | 197.6 ± 12.6 mm^2 | 113.2 ± 13.0 mm^2 | 310.9 ± 6.9 mm^2 | 63.8% | 36.2% | +47.3% | – | – | – | – | – | – | –
CCCCCCCCCCCCC/C=C/[C@H](O)[C@@H](CO[C@@H]1O[C@H](CO)[C@@H](O[C@@H]2O[C@H](CO)[C@H](O)[C@H](O)[C@H]2O)[C@H](O)[C@H]1O)NC(=O)CCCCCCCCCCCCCCC [Lac(Pal)-L-Sph, (2R,3S,4E)-1-[4-0-(8-D-galactopyranosyl) -β-D-gluco-pyranosyloxy]-2-hexadecanoylamino-4-octadecen-3-ol] | – | – | 80 IU/liter | 120 ± 80 IU/liter | 80 ± 20 IU/liter | 182.8 ± 11.3 mm^2 | 112.7 ± 13.3 mm^2 | 295.5 ± 6.4 mm^2 | 62.3% | 37.7% | +43.9% | nor were any special reactions immediately after the injection | no toxic signs | strictly comparable in respect of weight gain | No mortality | 35.7 and 33.0 and 35.0 and 34.9 and 34.4 and 39.9 and 28.8 and 34.0 and 30.5 and 31.9 | +6.6 g and +6.0 g and +7.3 g and +7.0 g and +7.7 g and +9.7 g and +4.3 g and +6.4 g and +3.9 g and +5.6 g | 29.1 and 27.0 and 27.7 and 27.9 and 26.7 and 30.2 and 24.5 and 27.6 and 26.6 and 26.3
